Reference: patent publication US9783531B2, “Thiazole-substituted aminoheteroaryls as spleen tyrosine kinase inhibitors” (Merck Sharp & Dohme Corp., priority 2013, dated 2017)

What was measured:
[1] = molecular target: T1, recombinant human GST-SYK (Homo sapiens, UniProt P43405); assay: Homogeneous Time-Resolved Fluorescence (HTRF) assay for the recombinant human Syk enzyme; assay type: biochemical; conditions: recombinant human GST-SYK 5 pM, ATP 25 μM, read-out: rhSyk
T1 construct: purchased Carna Biosciences 08-176
Procedure: Homogeneous Time-Resolved Fluorescence (HTRF) Assay for the Recombinant Human Syk Enzyme
A recombinant GST-hSYK fusion protein was used to measure potency of compounds to inhibit human Syk activity. The recombinant human GST-SYK (Carna Biosciences #08-176) (5 pM final concentration) was incubated with various concentrations of the inhibitor diluted in DMSO (0.1% final concentration) for 10 minutes at room temperature in 15 mM Tris-HCl (pH 7.5), 0.01% tween 20, 2 mM DTT in 384 well plate format. To initiate the reaction the biotinylated substrate peptide (250 nM final concentration) that contains the phosphorylation site for Syk was added with magnesium (5 mM final concentration) and ATP (25 μM final concentration). Final volume of the reaction was 10 μL. Phosphorylation of the peptide was allowed to proceed for 45′ at room temperature. To quench the reaction and detect the phosphorylated product, 2 nM of a Europium-anti-phosphotyrosine antibody (Perkin Elmer #AD0161) and 70 nM SA-APC (Perkin-Elmer #CR130-100) were added together in 15 mM Tris pH 7.5, 40 mM EDTA, 0.01% tween 20. Final volume of the quenching solution was 10 μL.
The resulting HTRF signal was measured after 30 minutes on an EnVision (Perkin-Elmer) reader using a time-resolved fluorescence protocol. Table A below lists activities as IC50 values (nM) for representative compounds of the invention.

[2] = dosed intranasally, phase I/II study, allergic rhinitis; cited from earlier work
[3] = phase II clinical trial, allergic rhinitis; cited from earlier work

Row | Compound | IC50 [1] [nM] | other results
1 | Cc1cc(Nc2ncn(C(C)C)n2)cc(-c2cnc([C@]3(O)CC[C@@H](C(N)=O)CC3)s2)c1 [Example 2.23, cis-4-hydroxy-4-[5-(3-methyl-5-{[1-(1-methylethyl)-1H-1,2,4-triazol-3-yl]amino}phenyl)-1,3-thiazol-2-yl]cyclohexanecarboxamide] | 36.8 | –
2 | CCn1cnc(Nc2cc(C)cc(-c3cnc(C4(O)CCC4)s3)c2)n1 [Example 2.12, 1-(5-{3-[(1-ethyl-1H-1,2,4-triazol-3-yl)amino]-5-methylphenyl}-1,3-thiazol-2-yl)cyclobutanol] | 49.1 | –
3 | Cc1cc(Nc2ncn(C3CCC3)n2)cc(-c2cnc([C@]3(O)CC[C@@H](C(=O)O)C(C)(C)C3)s2)c1 (single isomer, unassigned) [Example 2.24, (1R,4S or 1S,4R)-4-(5-{3-[(1-cyclobutyl-1H-1,2,4-triazol-3-yl)amino]-5-methylphenyl}-1,3-thiazol-2-yl)-4-hydroxy-2,2-dimethylcyclohexanecarboxylic acid] | 0.388 | –
4 | Cc1cc(Nc2n[nH]c(C)n2)cc(-c2cnc(C3(O)CCC3)s2)c1 [Example 2.9, 1-(5-{3-methyl-5-[(5-methyl-1H-1,2,4-triazol-3-yl)amino]phenyl}-1,3-thiazol-2-yl)cyclobutanol] | 1300 | –
5 | CCn1cnc(Nc2cc(C)cc(-c3cnc([C@]4(O)CC[C@@H](C(N)=O)CC4)s3)c2)n1 [Example 2.3, 4-(5-(3-((1-Ethyl-1H-1,2,4-triazol-3-yl)amino)-5-methylphenyl)thiazol-2-yl)-4-hydroxycyclohexanecarboxamide] | 49.6 | –
6 | Cc1cc(Nc2cc(C)[nH]n2)cc(-c2cnc(C3(O)CCC3)s2)c1 [Example 2.5, 1-(5-{3-methyl-5-[(5-methyl-1H-pyrazol-3-yl)amino]phenyl}-1,3-thiazol-2-yl)cyclobutanol] | 941 | –
7 | Cc1cc(Nc2ncn(Cc3ccccc3)n2)cc(-c2cnc(C3(O)CCC3)s2)c1 [Example 2.19, 1-(5-{3-[(1-benzyl-1H-1,2,4-triazol-3-yl)amino]-5-methylphenyl}-1,3-thiazol-2-yl)cyclobutanol] | 325 | –
8 | Cc1cc(Nc2cc[nH]n2)cc(-c2cnc(C3(O)CCC3)s2)c1 [Example 2.4, 1-{5-[3-methyl-5-(1H-pyrazol-3-ylamino)phenyl]-1,3-thiazol-2-yl}cyclobutanol] | 1140 | –
9 | Cc1cc(Nc2cc(C3CC3)[nH]n2)cc(-c2cnc(C3(O)CCC3)s2)c1 [Example 2.6, 1-(5-{3-[(5-cyclopropyl-1H-pyrazol-3-yl)amino]-5-methylphenyl}-1,3-thiazol-2-yl)cyclobutanol] | 181 | –
10 | Cc1cc(Nc2cc(C3CCC3)[nH]n2)cc(-c2cnc(C3(O)CCC3)s2)c1 [Example 2.7, 1-(5-{3-[(5-cyclobutyl-1H-pyrazol-3-yl)amino]-5-methylphenyl}-1,3-thiazol-2-yl)cyclobutanol] | 274 | –
11 | Cc1cc(Nc2ncn(-c3ccccc3)n2)cc(-c2cnc(C3(O)CCC3)s2)c1 [Example 2.14, 1-(5-{3-methyl-5-[(1-phenyl-1H-1,2,4-triazol-3-yl)amino]phenyl}-1,3-thiazol-2-yl)cyclobutanol] | 365 | –
12 | Oc1cccc(Nc2ncc(F)c(Nc3cccc(O)c3)n2)c1 [Example R112] | – | PGD2 (immune mediator) [2]: statistically significant decrease in PGD2; clinical safety [2]: safe across a range of indicators; efficacy versus placebo [3]: lack of efficacy versus placebo
13 | Cc1cc(Nc2ncn(C3CCC3)n2)cc(-c2cnc([C@]3(O)CC[C@@H](C(=O)O)C(C)(C)C3)s2)c1 (single isomer, unassigned) [Example 2.25, (1R,4S or 1S,4R)-4-(5-{3-[(1-cyclobutyl-1H-1,2,4-triazol-3-yl)amino]-5-methylphenyl}-1,3-thiazol-2-yl)-4-hydroxy-2,2-dimethylcyclohexanecarboxylic acid] | 2.54 | –
14 | Cc1cc(Nc2ncn(C(C)C)n2)cc(-c2cnc([C@]3(O)CC[C@@H](C(=O)OC(C)(C)C)CC3)s2)c1 [Example 2.20, tert-butyl cis-4-hydroxy-4-[5-(3-methyl-5-{[1-(1-methylethyl)-1H-1,2,4-triazol-3-yl]amino}phenyl)-1,3-thiazol-2-yl]cyclohexanecarboxylate] | 1000 | –
15 | Cc1cc(Nc2ncn(C)n2)cc(-c2cnc(C3(O)CCC3)s2)c1 [Example 2.10, 1-(5-{3-methyl-5-[(1-methyl-1H-1,2,4-triazol-3-yl)amino]phenyl}-1,3-thiazol-2-yl)cyclobutanol] | 188 | –
16 | Cc1cc(Nc2ncnn2C2CCC2)cc(-c2cnc(C3(O)CCC3)s2)c1 [Example 2.18, 1-(5-{3-[(1-cyclobutyl-1H-1,2,4-triazol-5-yl)amino]-5-methylphenyl}-1,3-thiazol-2-yl)cyclobutanol] | 7710 | –
17 | Cc1cc(Nc2ncn(C(C)C)n2)cc(-c2cnc([C@]3(O)CC[C@@H](C(=O)O)CC3)s2)c1 [Example 2.22, cis-4-hydroxy-4-[5-(3-methyl-5-{[1-(1-methylethyl)-1H-1,2,4-triazol-3-yl]amino}phenyl)-1,3-thiazol-2-yl]cyclohexanecarboxylic acid] | 9.94 | –
18 | Cc1cc(Nc2ncn(C)n2)cc(-c2cnc(C3(O)CCC(C(=O)OC(C)(C)C)CC3)s2)c1 (centres unmarked) [Example 1.1, tert-butyl 4-hydroxy-4-(5-(3-methyl-5-((1-methyl-1H-1,2,4-triazol-3-yl)amino)phenyl)thiazol-2-yl)cyclohexanecarboxylate] | 1160 | –
19 | CCn1cnc(Nc2cc(C)cc(-c3cnc(C4(O)CCC(C(=O)O)CC4)s3)c2)n1 (centres unmarked) [Example 2.2, 4-(5-(3-((1-ethyl-1H-1,2,4-triazol-3-yl)amino)-5-methylphenyl)thiazol-2-yl)-4-hydroxycyclohexanecarboxylic acid] | 10.1 | –
20 | CCCn1cnc(Nc2cc(C)cc(-c3cnc(C4(O)CCC4)s3)c2)n1 [Example 2.13, 1-(5-{3-methyl-5-[(1-propyl-1H-1,2,4-triazol-3-yl)amino]phenyl}-1,3-thiazol-2-yl)cyclobutanol] | 96.7 | –
21 | Cc1cc(Nc2ncn(C)n2)cc(-c2cnc(C3(O)CCC(C(=O)O)CC3)s2)c1 (centres unmarked) [Example 1.2, 4-hydroxy-4-(5-(3-methyl-5-((1-methyl-1H-1,2,4-triazol-3-yl)amino)phenyl)thiazol-2-yl)cyclohexanecarboxylic acid] | 56.5 | –
22 | Cc1cc(Nc2ncn(C(=O)N(C)C)n2)cc(-c2cnc(C3(O)CCC3)s2)c1 [Example 2.15, 3-({3-[2-(1-hydroxycyclobutyl)-1,3-thiazol-5-yl]-5-methylphenyl}amino)-N,N-dimethyl-1H-1,2,4-triazole-1-carboxamide] | 3860 | –
23 | Cc1cc(Nc2ncnn2C2CCC2)cc(-c2cnc([C@]3(O)CC[C@@H](C(=O)O)CC3)s2)c1 [Example 2.21, cis-4-(5-{3-[(1-cyclobutyl-1H-1,2,4-triazol-5-yl)amino]-5-methylphenyl}-1,3-thiazol-2-yl)-4-hydroxycyclohexane-carboxylic acid] | 3310 | –
24 | CCn1cnc(Nc2cc(C)cc(-c3cnc(C4(O)CCC(C(=O)OC(C)(C)C)CC4)s3)c2)n1 (centres unmarked) [Example 2.1, tert-butyl 4-(5-(3-((1-ethyl-1H-1,2,4-triazol-3-yl)amino)-5-methylphenyl)thiazol-2-yl)-4-hydroxycyclohexanecarboxylate] | 1110 | –
25 | Cc1cc(Nc2ncn(C3CCC3)n2)cc(-c2cnc(C3(O)CCC3)s2)c1 [Example 2.17, 1-(5-{3-[(1-cyclobutyl-1H-1,2,4-triazol-3-yl)amino]-5-methylphenyl}-1,3-thiazol-2-yl)cyclobutanol] | 7.41 | –
26 | Cc1cc(Nc2ncn(C(C)C)n2)cc(-c2cnc(C3(O)CCC3)s2)c1 [Example 2.11, 1-[5-(3-methyl-5-{[1-(1-methylethyl)-1H-1,2,4-triazol-3-yl]amino}phenyl)-1,3-thiazol-2-yl]cyclobutanol] | 49.2 | –
27 | Cc1cc(Nc2ncn(C3CCCCC3)n2)cc(-c2cnc(C3(O)CCC3)s2)c1 [Example 2.16, 1-(5-{3-[(1-cyclohexyl-1H-1,2,4-triazol-3-yl)amino]-5-methylphenyl}-1,3-thiazol-2-yl)cyclobutanol] | 115 | –
